{"source": "paper PMC2874326", "about": "(Bioconjugate chemistry, 2010)", "origin": "cited, not measured here", "test_system": "cells", "conditions": "relative to Tat and unmodified poly-arginine cell penetrating peptides"}
{"substance": "C14-βAla-(Arg)7-Cys(SH)-NH2 [MPAP]", "values": [{"measurement": "enhancement of peptide entry into cells by myristoylation", "result": "several-fold"}]}
